PubChem BioAssay (NCI)
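Method: 48-hour compound exposure of cells in 96-well plates, five concentrations, linear interpolation of endpoints. GI50 marks 50% less growth. Definition used: TGI = concentration required for complete inhibition of growth.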

How the values were obtained:
Test in all cases: inhibition of tumour cell growth, NCI panel, 48 h
[1] = system: SK-MEL-28 melanoma
[2] = system: HL-60(TB) leukemia
[3] = system: PC-3 prostate
[4] = system: HOP-92 NSCLC
[5] = system: IGROV1 ovarian
[6] = system: EKVX NSCLC
[7] = system: A549 NSCLC
[8] = system: NCI-H460 lung
[9] = system: TK-10 renal
[10] = system: CCRF-CEM leukemia

Structure (SMILES)	TGI [1]	TGI [2]	TGI [3]	TGI [4]	TGI [5]	TGI [6]	TGI [7]	TGI [8]	TGI [9]	TGI [10]	GI50 [1]	GI50 [3]	GI50 [4]	GI50 [10]	GI50 [5]	GI50 [6]	GI50 [7]	GI50 [8]	GI50 [9]	GI50 [2]
Cc1[nH]c2ccccc2c1-c1cc(-c2cc(-c3c(C)[nH]c4ccccc34)nc(N)n2)nc(N)n1	> 100 µM	> 100 µM	> 100 µM	> 100 µM	> 100 µM	> 100 µM	> 100 µM	> 100 µM	> 100 µM	–	–	–	–	–	–	–	–	–	–	–
COc1cc2c(cc1OC)C(OC)N(C)c1c-2ccc2cc3c(cc12)OCO3 (centres undefined)	33.5 µM	> 36.9 µM	> 75 µM	5.76 µM	3.02 µM	15 µM	–	3.58 µM	> 75 µM	13.4 µM	–	–	–	–	–	–	–	–	–	–
CC(C)C1CC2C(=O)N(c3ccccc3)C(=O)C2c2[nH]c3ccccc3c21 (centres undefined)	> 100 µM	93.9 µM	–	–	> 100 µM	> 100 µM	> 100 µM	> 100 µM	97.4 µM	54.3 µM	–	–	–	–	–	–	–	–	–	–
CN1C(c2ccccc2)CS(=O)(=O)CS1(=O)=O (centres undefined)	> 100 µM	–	–	–	> 100 µM	> 100 µM	> 100 µM	> 100 µM	> 100 µM	–	–	–	–	–	–	–	–	–	–	–
CN(CC#N)C1CCCC[C@H]1O (some centres undefined)	> 100 µM	> 100 µM	–	> 100 µM	> 100 µM	> 100 µM	> 100 µM	> 100 µM	> 100 µM	> 100 µM	–	–	–	–	–	–	–	–	–	–
Nc1nc2cc3ccc(C4CC(O)C(CO)O4)cc3cc2c(=O)[nH]1 (centres undefined)	> 100 µM	–	> 100 µM	> 100 µM	> 100 µM	> 100 µM	> 100 µM	> 100 µM	–	> 100 µM	> 100000 nM	> 100000 nM	> 100000 nM	41.4 µM	> 100 µM	> 100000 nM	> 100000 nM	> 100 µM	–	–
Cc1cc2cn3c4ccc(O)cc4[nH]c(=O)c3c2cc1C	1.74 µM	–	1.7 µM	1.95 µM	–	1.85 µM	1.04 µM	–	2.13 µM	1.81 µM	34.6 nM	54.2 nM	72.3 nM	0.0418 µM	–	403 nM	30.8 nM	–	667 nM	–
O=C(Nc1cccc(Cc2cccc(NC(=O)c3ccccc3)c2)c1)c1ccccc1	> 100 µM	> 100 µM	–	44.3 µM	> 100 µM	> 100 µM	> 100 µM	> 100 µM	> 100 µM	> 100 µM	–	–	–	–	–	–	–	–	–	–
NC(=O)c1coc(C2OC(CO)C(O)C2O)n1 (centres undefined)	> 100 µM	> 100 µM	–	> 100 µM	> 100 µM	> 100 µM	> 100 µM	> 100 µM	> 100 µM	> 100 µM	–	–	–	–	–	–	–	–	–	–
O/N=C1/C(=C/c2ccc(Oc3ccccc3)cc2)CCCC1C(NO)c1ccc(Oc2ccccc2)cc1 (centres undefined)	> 100 µM	25.6 µM	–	56.3 µM	> 100 µM	> 100 µM	> 100 µM	> 100 µM	> 100 µM	61.2 µM	–	–	–	–	–	–	–	–	–	–
CCOC(=O)C(=O)Nc1ccc(Cl)cc1C	> 100 µM	> 100 µM	–	> 100 µM	> 100 µM	> 100 µM	> 100 µM	> 100 µM	> 100 µM	> 100 µM	–	–	–	–	–	–	–	–	–	–
COC(=O)CCC(=O)Nc1cc(Cl)ccc1Cl	> 100 µM	> 100 µM	–	> 100 µM	> 100 µM	> 100 µM	> 100 µM	> 100 µM	–	> 100 µM	–	–	–	–	–	–	–	–	–	–
CN(C)/N=C(/c1nc2ccc([N+](=O)[O-])cc2[nH]c1=O)C(O)c1ccco1 (centres undefined)	> 100 µM	> 100 µM	–	> 100 µM	> 100 µM	–	> 100 µM	> 100 µM	–	> 100 µM	–	–	–	–	–	–	–	–	–	–
CC(=O)c1ccc2c(ccc(=O)n2C)c1	> 100 µM	> 100 µM	–	> 100 µM	> 100 µM	> 100 µM	> 100 µM	> 100 µM	> 100 µM	> 100 µM	–	–	–	–	–	–	–	–	–	–
O=C(c1ccccc1)c1oc2ccc(Br)cc2c1-c1cnn(-c2ccccc2)c1	> 100 µM	> 100 µM	–	> 100 µM	> 100 µM	–	–	> 100 µM	–	> 100 µM	–	–	–	–	–	–	–	–	–	–
O=C(CC1(O)C(=O)Nc2ccccc21)c1ccco1 (centres undefined)	> 100 µM	> 100 µM	–	> 100 µM	> 100 µM	> 100 µM	> 100 µM	> 100 µM	> 100 µM	–	–	–	–	–	–	–	–	–	–	–
CCCCCCCCCCCCCCCC[N+](C)(CCO)Cc1cnc[nH]1 (centres undefined)	9.78 µM	2 µM	2.37 µM	3.82 µM	–	6.63 µM	5.57 µM	–	–	–	2700 nM	441 nM	922 nM	–	–	1470 nM	1490 nM	–	–	390 nM
COC(=O)NC1(NC(=O)OC)NC(=O)c2cc(OC)c(OC)c(OC)c2N1	> 100 µM	87.7 µM	72.3 µM	–	> 100 µM	> 100 µM	> 100 µM	> 100 µM	> 100 µM	> 100 µM	–	–	–	–	–	–	–	–	–	–
Cc1ccc(NC(=O)C(=O)CC(=O)C2CCOC2=O)c(C)c1 (centres undefined)	> 100 µM	> 100 µM	–	> 100 µM	> 100 µM	> 100 µM	> 100 µM	> 100 µM	> 100 µM	> 100 µM	–	–	–	–	–	–	–	–	–	–
COc1ccc(Cc2cc3c(cc2OCC(=O)O)OCO3)cc1	> 100 µM	> 100 µM	–	> 100 µM	> 100 µM	> 100 µM	> 100 µM	> 100 µM	> 100 µM	> 100 µM	–	–	–	–	–	–	–	–	–	–
O=S(=O)(N/N=C/c1cccc(Cl)c1Cl)c1ccccc1	> 100 µM	> 100 µM	–	82.5 µM	> 100 µM	> 100 µM	> 100 µM	> 100 µM	> 100 µM	> 100 µM	–	–	–	–	–	–	–	–	–	–
COc1ccc(N/N=C(\CCN(C)C)c2ccccc2)cc1	7.83 µM	12.9 µM	–	–	17.8 µM	56.9 µM	–	10.8 µM	6.02 µM	23.5 µM	–	–	–	–	–	–	–	–	–	–
CC1=C(C(=O)Nc2cc(=O)n(C)c(=O)n2C)C(c2ccc([N+](=O)[O-])cc2)C(C(=O)Nc2cc(=O)n(C)c(=O)n2C)=C(C)N1	> 100 µM	> 100 µM	–	85.7 µM	> 100 µM	> 100 µM	> 100 µM	> 100 µM	> 100 µM	> 100 µM	–	–	–	–	–	–	–	–	–	–
